# US9593305B2, “Differentiation of pluripotent stem cells” (Janssen Biotech, Inc., priority 2008, dated 2017)
# System: H1 human embryonic stem cells
# Experiment: Step-wise differentiation, high content analysis of cell number, insulin, glucagon after step 5 (Example 17)
# Format: cell-based
# Conditions: GDF-8 in step 1, alone or with a compound
# Experimental: Step 5 of the differentiation protocol was carried out over seven days in DMEM-high glucose with 0.1% Albumax, 0.5× Insulin-Transferrin-Selenium, and 1 μM Alk 5 inhibitor. Medium in each well was aspirated and replaced with a fresh aliquot (0.5 ml) on all days. At the conclusion of the fifth step of differentiation, cells from some wells were harvested for analysis by RT-PCR to measure markers of differentiation. Other culture wells were subjected to high content image analysis for protein expression levels of insulin and glucagon.
# At the conclusion of culture, assay plates were washed once with PBS (Invitrogen; Cat #14190), fixed with 4% paraformaldehyde (Alexis Biochemical; Cat #ALX-350-011) at room temperature for 20 minutes, then washed three times with PBS and permeabilized with 0.5% Triton X-100 (Sigma; Cat #T8760-2) for 20 minutes at room temperature. […]
# Imaging was performed using an IN Cell Analyzer 1000 (GE Healthcare) utilizing the 51008bs dichroic for cells stained with Hoechst 33342 and Alexa Fluor 488. […] Segmentation for the nuclei was determined based on gray-scale levels (baseline range 100-300) and nuclear size. Averages and standard deviations were calculated for each replicate data set. Total protein expression was reported as total intensity or integrated intensity, defined as total fluorescence of the cell multiplied by the area of the cell. […]
substance,measurement,value
"GDF-8: growth factor GDF-8, also known as myostatin, member of the TGF-β family",insulin and glucagon expression at the conclusion of step five,resulted in insulin and glucagon expression
